Like-named read-outs stand apart in the source and are kept apart here.
Key:
[1] = target: T1, human C-terminal DNMT3A (623-908a.a.) (Homo sapiens, UniProt Q9Y6K1); assay: hDNMT3A assay (restriction-based fluorescence assay); format: biochemical; details: for inhibition at 10 µM: read-out: hDNMT 3A inhibition, Inhibition (%) 10 μM; for inhibition at 32 µM: read-out: hDNMT 3A inhibition, Inhibition (%) 32 μM
T1 construct: The human C-terminal DNMT3A (623-908a.a.); made in house
From the text: hDNMT3A enzyme inhibition was adapted from the restriction-based fluorescence assay protocol as described in the literature (Ceccaldi et al. Chem Bio Chem 2011, 12, 1337-1345). Briefly, a 5′-labelled biotin oligonucleotide is hybridized to its complementary strand labelled with 6-carboxyfluorescein at the 3′-end into a 384 well microplate (black Optiplates; Perkin Elmer) pre-coated with avidin. The duplex contains a unique CpG site overlapping with a restriction site of a methylation sensitive restriction enzyme. The human C-terminal DNMT3A (623-908a.a.), produced as described in (Gros et al. Nucl. Acids Res. 2013, 41(19):e185), was added in each well (200 ng/well) and mixed with the chemical compounds at desired concentrations and freshly prepared SAM (20 μM final concentration) to start the reaction in a total volume of 50 μL. After 1 hour incubation at 37° C. each well were washed three times with PBS, Tween-20 0.05%, NaCl (500 mM) and three more times with PBST. Specific fluorescent signals were detected with the methylation-sensitive restriction enzyme HpyCH4IV (NEB) as described and measured on a Perkin Elmer Envision detector. The percentage of inhibition is reported. The formula used to calculate the percentage of inhibition is [(X−Y)/X]×100, where X is the signal determined in the absence of the inhibitor and Y is the signal obtained in the presence of the inhibitor. The concentration at which 50% of efficacy of inhibition is observed (EC50) was determined by analysis of a concentration range of the tested compound in triplicates. The non-linear regression fittings with sigmoidal dose-response (variable slope) were performed with GraphPad Prism 4.03 (GraphPad Software).

[2] = tested on: HCT116 (colorectal cancer); assay: Anti-proliferative activity (ATPLite); format: cell-based; details: Homo sapiens, HCT-116; daily treatment, cell viability by ATPLite; read-out: Antiproliferative activity: IC50 (μM) HCT116 (colorectal cancer)
Method: (§1) To measure the anti-proliferative properties of tested molecules, 2×10^4 cells are seeded at day 0 in a 96 wells plate. The compounds to be tested, stored at −20° C. as 10^−2 M stock solution in 100% DMSO, are freshly diluted on day 1 in the cell medium, before adding a dose range of 3.2 nM to 10 μM to the cells. Cells are treated everyday and cell viability assessed after 3 days or 7 days of treatment. The cell viability is assessed using the ATPLite kit from Perkin (ATPlite 1 Step Luminescence Assay System, ref 3016739), following the provider instructions. The raw data are analyzed with GraphPad Prism software (v4.03) to generate IC50 values corresponding to the compound concentrations giving 50% reduction in cell viability. The values presented are the mean results of at least two independent experiments. The standard errors are indicated.

WM266-4 (melanoma) = assay: Anti-proliferative activity (ATPLite); format: cell-based; details: Homo sapiens, WM 266-4; two treatments instead of three; cell viability by ATPLite; read-out: Antiproliferative activity: IC50 (μM) WM266-4 (melanoma)
Method: as §1

KG-1 (leukemia) = assay: Anti-proliferative activity (ATPLite); format: cell-based; details: Homo sapiens; daily treatment, cell viability by ATPLite; read-out: Antiproliferative activity: IC50 (μM) KG-1 (leukemia)
Method: as §1

[3] = target: T2, His-DNMT1 (182 kDa, human) (Homo sapiens, UniProt P26358); assay: hDNMT1 assay ([methyl-3H] SAM Flashplate); format: biochemical; details: for inhibition at 10 µM: read-out: hDNMT 1 inhibition, Inhibition (%) 10 μM; for inhibition at 32 µM: read-out: hDNMT 1 inhibition, Inhibition (%) 32 μM
T2 construct: His; made in house
Method: His-DNMT1 (182 kDa, human) was cloned, expressed and purified as described (Halby et al. Chem Bio Chem 2012, 13, 157-165). The reaction was performed in a 10 μL total reaction volume in low volume NBS™ 384-well microplates (Corning), containing the tested compound (up to 1% DMSO), 1 μM of a SAM/[methyl-^3H] SAM (3TBq/mmol, PerkinElmer) mix in a ratio of 3-to-1 (isotopic dilution 1*:3), 0.3 μM of biotinylated hemimethylated DNA duplex (5′-GATmCGCmCGATGmCGmCGAATmCGmCGATmCGATGmCGAT-3′ and BIOT-5′-[…]-3′), and 90 nM of DNMT1 in methylation buffer (20 mM HEPES pH 7.2, 1 mM EDTA, 50 mM KCl, 25 μg/mL BSA). The reaction was incubated at 37° C. for 2 hours. 8 μL are then transferred into a streptavidin 96-well scintillant coated Flashplate™ (PerkinElmer) containing 190 μL of 20 μM SAH in 50 mM Tris-HCl pH 7.4. The Flashplate™ was agitated at room temperature for 1 hour and read in 200 μL of 50 mM Tris-HCl pH 7.4 on TopCount NXT (PerkinElmer). The percentage of inhibition is reported. The formula used to calculate the percentage of inhibition is [(X−Y)/X]×100, where X is the signal determined in the absence of the inhibitor and Y is the signal obtained in the presence of the inhibitor.

[4] = concentration at which 50% of efficacy of inhibition is observed, read-out: EC50 (μM), hDNMT 3A inhibition
[5] = interval line below the EC50 of the same compound, read-out: EC50 (μM), range given

T1 sequence (Q9Y6K1 627-912 limits assumed): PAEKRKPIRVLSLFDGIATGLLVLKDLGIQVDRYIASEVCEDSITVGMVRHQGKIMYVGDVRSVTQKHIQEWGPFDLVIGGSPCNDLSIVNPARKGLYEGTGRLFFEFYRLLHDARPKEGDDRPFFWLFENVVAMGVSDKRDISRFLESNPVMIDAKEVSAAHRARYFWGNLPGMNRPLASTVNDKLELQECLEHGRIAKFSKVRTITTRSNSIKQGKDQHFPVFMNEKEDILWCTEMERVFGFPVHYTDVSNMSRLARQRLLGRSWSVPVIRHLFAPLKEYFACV
T2 sequence (P26358 whole entry): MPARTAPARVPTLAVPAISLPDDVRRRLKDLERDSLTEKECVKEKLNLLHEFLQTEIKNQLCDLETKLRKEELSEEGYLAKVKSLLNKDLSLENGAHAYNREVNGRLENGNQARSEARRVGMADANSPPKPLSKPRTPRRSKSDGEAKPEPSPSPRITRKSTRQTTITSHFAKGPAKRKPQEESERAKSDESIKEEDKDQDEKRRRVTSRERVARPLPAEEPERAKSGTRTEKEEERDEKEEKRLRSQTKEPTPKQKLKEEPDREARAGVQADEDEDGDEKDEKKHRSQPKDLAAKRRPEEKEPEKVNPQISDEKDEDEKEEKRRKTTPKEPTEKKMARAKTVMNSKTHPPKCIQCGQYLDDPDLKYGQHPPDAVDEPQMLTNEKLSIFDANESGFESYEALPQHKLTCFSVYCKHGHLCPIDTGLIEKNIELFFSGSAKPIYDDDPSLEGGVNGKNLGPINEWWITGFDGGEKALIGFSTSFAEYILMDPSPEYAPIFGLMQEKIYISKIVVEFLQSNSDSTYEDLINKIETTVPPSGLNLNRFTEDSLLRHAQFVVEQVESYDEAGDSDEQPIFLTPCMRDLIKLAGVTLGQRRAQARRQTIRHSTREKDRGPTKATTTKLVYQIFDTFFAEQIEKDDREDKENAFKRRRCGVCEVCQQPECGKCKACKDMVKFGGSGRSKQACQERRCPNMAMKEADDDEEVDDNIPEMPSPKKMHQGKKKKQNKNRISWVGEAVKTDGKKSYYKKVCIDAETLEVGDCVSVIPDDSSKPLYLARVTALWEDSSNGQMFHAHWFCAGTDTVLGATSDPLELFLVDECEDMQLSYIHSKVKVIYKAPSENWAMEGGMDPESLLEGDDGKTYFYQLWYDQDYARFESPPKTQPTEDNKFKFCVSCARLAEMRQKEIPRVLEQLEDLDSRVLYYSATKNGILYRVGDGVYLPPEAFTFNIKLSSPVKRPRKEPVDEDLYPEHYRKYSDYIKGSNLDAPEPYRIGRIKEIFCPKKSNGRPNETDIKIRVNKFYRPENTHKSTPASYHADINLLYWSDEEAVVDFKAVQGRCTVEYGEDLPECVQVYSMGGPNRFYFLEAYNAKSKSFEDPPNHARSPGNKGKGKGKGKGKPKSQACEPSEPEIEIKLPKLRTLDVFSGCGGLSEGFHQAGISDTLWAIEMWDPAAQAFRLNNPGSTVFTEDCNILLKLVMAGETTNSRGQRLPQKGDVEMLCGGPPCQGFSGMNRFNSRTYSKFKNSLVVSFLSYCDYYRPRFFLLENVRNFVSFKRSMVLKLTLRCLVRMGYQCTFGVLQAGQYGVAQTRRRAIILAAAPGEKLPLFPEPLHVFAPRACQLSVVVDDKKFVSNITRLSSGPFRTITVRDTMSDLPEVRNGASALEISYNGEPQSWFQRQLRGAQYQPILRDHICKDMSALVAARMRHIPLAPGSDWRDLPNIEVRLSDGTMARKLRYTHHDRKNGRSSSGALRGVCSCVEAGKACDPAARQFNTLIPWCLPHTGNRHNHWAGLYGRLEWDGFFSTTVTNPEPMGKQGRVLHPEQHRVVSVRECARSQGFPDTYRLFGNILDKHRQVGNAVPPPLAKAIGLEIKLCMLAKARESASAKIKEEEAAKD

Structure (SMILES) | EC50 [1, 4] | inhibition at 10 µM [1] | inhibition at 32 µM [1] | IC50 [2] | IC50 (WM266-4 (melanoma)) | IC50 (KG-1 (leukemia)) | EC50 ([3]; read-out: EC50 (μM), hDNMT 1 inhibition) | inhibition at 10 µM [3] | inhibition at 32 µM [3] | EC50 [1, 5]
CCN(CC)CCCNC(=S)N1CCc2cc3c4cc2[C@@H]1Cc1ccc(OC)c(c1)Oc1ccc(cc1)C[C@H]1c2c(cc(OC)c(c2O4)O3)CCN1C(=S)NCCCN(CC)CC [Product 41] | 0.557 to 0.91 µM | 94% | 95% | 0.96 ± 0.02 µM | 4.4 ± 1.5 µM | 5.3 ± 0.4 µM | 11 ± 0.7 µM | 60% | 99% | 
CNC(=O)N1CCc2cc(OC)c3c4c2[C@@H]1Cc1ccc(cc1)Oc1cc(ccc1OC)C[C@H]1c2cc(c(cc2CCN1C)O3)O4 [Product 44] | 3.96 µM | 82% | 96% | 1.88 ± 0.03 µM | 12 ± 3 µM | 4.2 ± 0.05 µM |  | 0% | 15% | 3.04 to 5.17 µM
COc1ccc2cc1Oc1ccc(cc1)C[C@@H]1NCCc3cc(OC)c4c(c31)Oc1cc3c(cc1O4)CCN(C)[C@H]3C2 [Trilobine (1), trilobine] | 3.8 µM | 88% | 96% | 1.19 ± 0.02 µM | 3.2 ± 0.8 µM | 2.1 ± 0.8 µM |  | 4% |  | 3.21 to 4.49 µM
